# *1 amine or outer side, *2 acyl side, *3 side chain or, on linkers, in order; H or OH if unused. Where a SMILES comes first, the peptide text is derived from it. Bridges are numbered along the chain shown (N, C = ends). Roman numbers before positions name the chains, in order. Side-chain parts run from the residue outwards. [ ]: non-standard residue; d: D form. The star is where a group is joined. C20 diacid = O=C(O)CCCCCCCCCCCCCCCCCCC(=O)*; C18 diacid = O=C(O)CCCCCCCCCCCCCCCCC(=O)*; γGlu = O=C(O)[C@H](CCC(=O)[*:2])N[*:1]; εLys = N[C@@H](CCCCN[*:1])C(=O)[*:2]; αMeL = CC(C)C[C@](C)(N)C(=O)O; AEEA = NCCOCCOCC(=O)O; Aib = CC(C)(N)C(=O)O; Ahx = NCCCCCC(=O)O; βAla = NCCC(=O)O
# What was measured:
# human CRHR2 = molecular target: T1, human CRHR2 (Homo sapiens, UniProt Q13324); assay: Human CRHR2 cAMP assay (HTRF) in HEK293 cells stably expressing human CRHR2; format: cell-based; details: HEK293 cells overexpressing human CRHR2; relative EC50, maximum 10 nM human UCN2; mean ± SE; read-out: hCRHR2 cAMP EC50 (pM, ± SE)
# T1 construct: expressed in transfected cells
# T1 sequence (Q13324 1-438 isoform Q13324-2): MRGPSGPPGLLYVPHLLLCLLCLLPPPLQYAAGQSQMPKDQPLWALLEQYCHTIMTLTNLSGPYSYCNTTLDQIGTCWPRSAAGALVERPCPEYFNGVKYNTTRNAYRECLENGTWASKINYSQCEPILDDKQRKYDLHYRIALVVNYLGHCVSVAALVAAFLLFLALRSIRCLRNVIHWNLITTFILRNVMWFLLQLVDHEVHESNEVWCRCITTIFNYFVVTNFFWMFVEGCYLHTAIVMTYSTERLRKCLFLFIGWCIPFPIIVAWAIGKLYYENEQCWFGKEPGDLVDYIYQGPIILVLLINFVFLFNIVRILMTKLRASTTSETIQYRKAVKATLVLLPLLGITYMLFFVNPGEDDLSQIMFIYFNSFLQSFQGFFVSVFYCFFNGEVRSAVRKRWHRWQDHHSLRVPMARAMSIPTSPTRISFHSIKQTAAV
# Method in brief: (§1)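 HTRF cAMP read-out (665/620 nm ratio, 60 min lysis/detection at RT), converted to pmol/well via per-experiment standard curve. Stable HEK293 lines; buffer MEM, 0.1% casein, 5 mM HEPES pH 7.4, 0.25 mM IBMX. CRHR1: 25,000 cells, 1 h, 37° C. CRHR2: 5,000 cells, 30 min, RT.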
# human CRHR1 = molecular target: T2, human CRHR1 (Homo sapiens, UniProt P34998); assay: Human CRHR1 cAMP assay (HTRF) in HEK293 cells stably expressing human CRHR1; format: cell-based; details: HEK293 cells overexpressing human CRHR1; relative EC50, maximum 66 nM human UCN1; mean ± SE; read-out: hCRHR1 cAMP EC50 (pM, ± SE)
# T2 construct: expressed in transfected cells
# T2 sequence (P34998 24-415): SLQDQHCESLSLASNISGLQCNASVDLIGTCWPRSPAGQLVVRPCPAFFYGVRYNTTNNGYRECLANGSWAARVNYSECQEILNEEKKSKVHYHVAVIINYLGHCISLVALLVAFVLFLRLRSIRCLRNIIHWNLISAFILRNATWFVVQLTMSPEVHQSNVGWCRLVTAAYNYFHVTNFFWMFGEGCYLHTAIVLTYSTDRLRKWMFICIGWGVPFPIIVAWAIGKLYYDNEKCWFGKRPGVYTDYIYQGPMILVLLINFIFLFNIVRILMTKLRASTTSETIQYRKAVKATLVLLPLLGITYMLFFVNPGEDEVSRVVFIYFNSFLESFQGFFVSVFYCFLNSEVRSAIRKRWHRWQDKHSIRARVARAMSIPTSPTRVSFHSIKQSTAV
# Method in brief: as §1
EC50 (human CRHR2),EC50 (human CRHR1),Molecule
18.3 ± 2.1 pM,> 1e+07 pM,"Ac-GSPSIVTS[αMeL]DVPT[Aib][αMeL]LQKILEQERAEKARQQAK([AEEA-Pro-Lys-Glu-γGlu-C20 diacid])EAAEILAQV-NH2 [SEQ ID NO: 3, Ac-GSPSIVTS αMeL DVPT Aib αMeL LQKILEQERAEKARQQAK((2-[2-(2-Amino-ethoxy)-ethoxy]-acetyl)-PKE-γE-CO-(CH2)18-CO2H)EAAEILAQV-NH2]"
20.3 ± 2.9 pM,> 1e+07 pM,"Ac-GSPSIVTS[αMeL]DVPT[Aib][αMeL]LQKILEQERAEKARQQAK([Ahx-AEEA-γGlu-C20 diacid])EAAEILAQV-NH2 [SEQ ID NO: 4, Ac-GSPSIVTS αMeL DVPT Aib αMeL LQKILEQERAEKARQQAK(Ahx-(2-[2-(2-Amino-ethoxy)-ethoxy]-acetyl)-γE-CO-(CH2)18-CO2H)EAAEILAQV-NH2]"
10.6 ± 1.4 pM,> 1e+07 pM,"Ac-GSPSIVTS[αMeL]DVPT[Aib][αMeL]LQKILEQERAEKARQQAK([Gly-βAla-βAla-βAla-γGlu-C20 diacid])EAAEILAQV-NH2 [SEQ ID NO: 7, Ac-GSPSIVTS αMeL DVPT Aib αMeL LQKILEQERAEKARQQAK(G-(βA)3-γE-CO-(CH2)18-CO2H)EAAEILAQV-NH2]"
9.5 ± 0.9 pM,> 1e+07 pM,"Ac-GSPSIVTS[αMeL]DVPT[Aib][αMeL]LQKILEQERAEKARQQAK([γGlu-AEEA-AEEA-εLys-C20 diacid])EAAEILAQV-NH2 [SEQ ID NO: 17, Ac-GSPSIVTS αMeL DVPT Aib αMeL LQKILEQERAEKARQQAK(γE-(2-[2-(2-Amino-ethoxy)-ethoxy]-acetyl)2-ϵK-CO-(CH2)18-CO2H)EAAEILAQV-NH2]"
8.3 ± 0.5 pM,> 1e+07 pM,"Ac-GSPSIVTS[αMeL]DVPT[Aib][αMeL]LQKILEQERAEKARQQAK([γGlu-Pro-Pro-Pro-εLys-C20 diacid])EAAEILAQV-NH2 [SEQ ID NO: 14, Ac-GSPSIVTS αMeL DVPT Aib αMeL LQKILEQERAEKARQQAK(γE-PPP-EK-CO-(CH2)18-CO2H)EAAEILAQV-NH2]"
11.1 ± 0.5 pM,> 1e+07 pM,"Ac-GSPSIVTS[αMeL]DVPT[Aib][αMeL]LQKILEQERAEKARQQAK([γGlu-εLys-AEEA-εLys-C20 diacid])EAAEILAQV-NH2 [SEQ ID NO: 19, Ac-GSPSIVTS αMeL DVPT Aib αMeL LQKILEQERAEKARQQAK(γE-EK-(2-[2-(2-Amino-ethoxy)-ethoxy]-acetyl)-ϵK-CO-(CH2)18-CO2H)EAAEILAQV-NH2]"
10.9 ± 1.3 pM,> 1e+07 pM,"Ac-GSPSIVTS[αMeL]DVPT[Aib][αMeL]LQKILEQERAEKARQQAK([γGlu-εLys-γGlu-εLys-C20 diacid])EAAEILAQV-NH2 [SEQ ID NO: 18, Ac-GSPSIVTS αMeL DVPT Aib αMeL LQKILEQERAEKARQQAK(γE-ϵK-γE-ϵK-CO-(CH2)18-CO2H)EAAEILAQV-NH2]"
15.3 ± 1.4 pM,> 1e+07 pM,Ac-GSPSIVTS[αMeL]DVPT[Aib][αMeL]LQKILEQERAEKARQQAKEAAEILAQV-NH2 [SEQ ID NO: 20]
13 ± 1.1 pM,> 1e+07 pM,"Ac-PPPIVTS[αMeL]D[dV]PT[Aib][αMeL]LQK[Aib]LEQERAEKARQQAK([γGlu-AEEA-εLys-C20 diacid])ENTEILAQV-NH2 [SEQ ID NO: 46, Ac-PPPIVTS αMeL D (D-Val) PT Aib αMeL LQK Aib LEQERAEKARQQAK(γE-(2-[2-(2-Amino-ethoxy)-ethoxy]-acetyl)-ϵK-CO-(CH2)18-CO2H)ENTEILAQV-NH2]"
23.6 ± 2.9 pM,> 1e+07 pM,H-GSPSIVTS[αMeL]DVPT[Aib][αMeL]LQKILEQERAEKARQQATEAAEILAQV-NH2 [SEQ ID NO: 27]

# Continued, molecule first:
Molecule,EC50 (human CRHR2),EC50 (human CRHR1)
"CC[C@H](C)[C@H](NC(C)=O)C(=O)N[C@H](C(=O)N[C@H](C(=O)N[C@@H](CO)C(=O)N[C@@](C)(CC(C)C)C(=O)N[C@@H](CC(=O)O)C(=O)N[C@@H](C(=O)N1CCC[C@H]1C(=O)N[C@H](C(=O)NCC(=O)N[C@@](C)(CC(C)C)C(=O)N[C@@H](CC(C)C)C(=O)N[C@@H](CCC(N)=O)C(=O)N[C@H](C(=O)N[C@@H](CCCCN)C(=O)N[C@@H](CC(C)C)C(=O)N[C@@H](CCC(=O)O)C(=O)N[C@@H](CCC(N)=O)C(=O)N[C@@H](CCC(=O)O)C(=O)N[C@@H](CCCNC(=N)N)C(=O)N[C@@H](C)C(=O)N[C@@H](CCC(=O)O)C(=O)N[C@@H](CCCCN)C(=O)N[C@@H](C)C(=O)N[C@@H](CCCNC(=N)N)C(=O)N[C@@H](CCC(N)=O)C(=O)N[C@@H](CCC(N)=O)C(=O)N[C@@H](C)C(=O)N[C@@H](CCCCNC(=O)COCCOCCNC(=O)CC[C@H](NC(=O)CC[C@H](NC(=O)CCCCCCCCCCCCCCCCCCC(=O)O)C(=O)O)C(=O)O)C(=O)N[C@@H](CCC(=O)O)C(=O)N[C@@H](CC(N)=O)C(=O)N[C@H](C(=O)N[C@@H](CCC(=O)O)C(=O)N[C@H](C(=O)N[C@@H](CC(C)C)C(=O)N[C@@H](C)C(=O)N[C@@H](CCC(N)=O)C(=O)N[C@H](C(N)=O)C(C)C)[C@@H](C)CC)[C@@H](C)O)[C@@H](C)CC)[C@@H](C)O)C(C)C)[C@@H](C)O)C(C)C [SEQ ID NO: 44, Ac-IVTS αMeL D (D-Val) PTG αMeL LQIKLEQERAEKARQQAK((2-[2-(2-Amino-ethoxy)-ethoxy]-acetyl)-(γE)2-CO-(CH2)18-CO2H)ENTEILAQV-NH2] (Ac-IVTS[αMeL]D[dV]PTG[αMeL]LQIKLEQERAEKARQQAK([AEEA-γGlu-γGlu-C20 diacid])ENTEILAQV-NH2)",5.4 ± 0.5 pM,> 1e+07 pM
"Ac-GSPSIVTS[αMeL]DVPT[Aib][αMeL]LQKILEQERAEKARQQAK([Gly-βAla-βAla-βAla-βAla-γGlu-C20 diacid])EAAEILAQV-NH2 [SEQ ID NO: 8, Ac-GSPSIVTS αMeL DVPT Aib αMeL LQKILEQERAEKARQQAK(G-(βA)4-γE-CO-(CH2)18-CO2H)EAAEILAQV-NH2]",11 ± 0.9 pM,> 1e+07 pM
"Ac-GSPSIVTS[αMeL]DVPT[Aib][αMeL]LQKILEQERAEKARQQAK([βAla-Ser-βAla-Ser-γGlu-C20 diacid])EAAEILAQV-NH2 [SEQ ID NO: 10, Ac-GSPSIVTS αMeL DVPT Aib αMeL LQKILEQERAEKARQQAK((βA)-S-(βA)-S-γE-CO-(CH2)18-CO2H)EAAEILAQV-NH2]",10.1 ± 1.1 pM,> 1e+07 pM
"Ac-GSPSIVTS[αMeL]DVPT[Aib][αMeL]LQKILEQERAEKARQQAK([γGlu-AEEA-Ahx-C20 diacid])EAAEILAQV-NH2 [SEQ ID NO: 5, Ac-GSPSIVTS αMeL DVPT Aib αMeL LQKILEQERAEKARQQAK(γE-(2-[2-(2-Amino-ethoxy)-ethoxy]-acetyl)-Ahx-CO-(CH2)18-CO2H)EAAEILAQV-NH2]",10.7 ± 0.8 pM,> 1e+07 pM
"Ac-GSPSIVTS[αMeL]DVPT[Aib][αMeL]LQKILEQERAEKARQQAK([γGlu-AEEA-εLys-C18 diacid])EAAEILAQV-NH2 [SEQ ID NO: 21, Ac-GSPSIVTS αMeL DVPT Aib αMeL LQKILEQERAEKARQQAK(γE-(2-[2-(2-Amino-ethoxy)-ethoxy]-acetyl)-ϵK-CO-(CH2)16-CO2H)EAAEILAQV-NH2]",16.3 ± 1.3 pM,> 1e+07 pM
"Ac-GSPSIVTS[αMeL]DVPT[Aib][αMeL]LQKILEQERAEKARQQAK([γGlu-Pro-Lys-Glu-Ahx-C20 diacid])EAAEILAQV-NH2 [SEQ ID NO: 11, Ac-GSPSIVTS αMeL DVPT Aib αMeL LQKILEQERAEKARQQAK(γE-PKE-Ahx-CO-(CH2)18-CO2H)EAAEILAQV-NH2]",8.3 ± 1.4 pM,> 1e+07 pM
"Ac-GSPSIVTS[αMeL]DVPT[Aib][αMeL]LQKILEQERAEKARQQAK([γGlu-Pro-Lys-Glu-εLys-C20 diacid])EAAEILAQV-NH2 [SEQ ID NO: 13, Ac-GSPSIVTS αMeL DVPT Aib αMeL LQKILEQERAEKARQQAK(γE-PKE-ϵK-CO-(CH2)18-CO2H)EAAEILAQV-NH2]",7.9 ± 0.3 pM,> 1e+07 pM
"Ac-PPPIVTS[αMeL]D[dV]PT[Aib][αMeL]LQKLLEQERAEKARQQAK([γGlu-AEEA-εLys-C20 diacid])EAAEILAQV-NH2 [SEQ ID NO: 47, Ac-PPPIVTS αMeL D (D-Val) PT Aib αMeL LQKLLEQERAEKARQQAK(γE-(2-[2-(2-Amino-ethoxy)-ethoxy]-acetyl)-ϵK-CO-(CH2)18-CO2H)EAAEILAQV-NH2]",17.5 ± 2.2 pM,2.3e+06 pM
"I: Ac-GSPSIVTS[αMeL]DVPT[Aib][αMeL]LQKILEQERAEKARQQAKEAAEILAQV-NH2 / II: {C20 diacid-γGlu}-EKEKEK[AEEA] (amide I:33-II:C) [SEQ ID NO: 9, Ac-GSPSIVTS αMeL DVPT Aib αMeL LQKILEQERAEKARQQAK((2-[2-(2-Amino-ethoxy)-ethoxy]-acetyl)-KEKEKE-γE-CO-(CH2)18-CO2H)EAAEILAQV-NH2]",15.5 ± 3.3 pM,> 1e+07 pM

# From patent US20250163119A1, “COMPOUNDS FOR THE TREATMENT OF DIABETES OR OBESITY” (Eli Lilly and Company, priority 2023, published 2025)
